These results are taken from article PMC7955893 (Journal of medicinal chemistry, 2019).

Data set [1] deals with MNAM levels in U2OS cells. Put plainly: MNAM measurement in U2OS cells by LC-MS/MS. The format is cell-based, human. The conditions noted are these: 24 h incubation.
A further data set concerns U2OS cells. As to the kind of experiment: CellTiter-Glo luminescent cell viability. The settings on record: 48 h, 100 μM dose. The format is cell-based, human. (In general: ATP-based viability assays read luminescence as a measure of living cells.)
The target in data set [2] is T1, NNMT (Homo sapiens, UniProt P40261).
T1 sequence (P40261 1-264): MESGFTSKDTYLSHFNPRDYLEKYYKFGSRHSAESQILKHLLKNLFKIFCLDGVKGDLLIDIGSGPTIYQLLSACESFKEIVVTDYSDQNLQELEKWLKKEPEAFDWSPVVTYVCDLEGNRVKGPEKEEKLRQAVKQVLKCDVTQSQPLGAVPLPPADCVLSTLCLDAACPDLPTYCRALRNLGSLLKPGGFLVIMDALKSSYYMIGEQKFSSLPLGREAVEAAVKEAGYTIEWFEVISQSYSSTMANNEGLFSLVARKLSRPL
Put plainly: Fluorescence-based continuous NNMT inhibition assay. The format is biochemical. The conditions noted are these: for NNMT inhibition (in words): qualitative SAR statement.

The next data set relates to Caco-2. As to the kind of experiment: A-B permeability testing. The settings on record: Caco-2, pH 6.5/7.4.
Data set [3] deals with T1, NNMT. As to the kind of experiment: Cellular thermal shift assay. The format is binding. The settings on record: K562 cell lysate; various concentrations; heated at 57 °C.

As to `COC(=O)[C@@H](N)CC[C@H](C#Cc1cccc(C(N)=O)c1)C[C@H]1O[C@@H](n2cnc3c(N)ncnc32)[C@H](O)[C@@H]1O` [compound 23, Methyl (2S,5S)-2-amino-5-(((2R,3S,4R,5R)-5-(6-amino-9H-purin-9-yl)-3,4-dihydroxytetrahydrofuran-2-yl)methyl)-7-(3-carbamoylphenyl)hept-6-ynoate], the “ability to decrease MNAM levels in U2OS cells (in words)” value (from here on “ability to decrease MNAM levels”) in data set [1] is reported as “the effects were modest”. Moreover, in the data set with U2OS cells, the “cytotoxicity to U2OS cells (in words)” value is on record as “None of the compounds tested (NS1, 21, 23, 24, 25) were toxic”.

Regarding `Nc1ncnc2c1ncn2[C@@H]1O[C@H](C[C@@H](C#Cc2ccccc2)CC[C@H](N)C(=O)O)[C@@H](O)[C@H]1O` [compound 13, (2S,5S)-2-amino-5-(((2R,3S,4R,5R)-5-(6-amino-9H-purin-9-yl)-3,4-dihydroxytetrahydrofuran-2-yl)methyl)-7-phenylhept-6-ynoic acid], the “NNMT inhibition (in words)” value at NNMT [2] is given as “equally poor NNMT inhibitors”.

`NC(=O)c1ccc(C#C[C@@H](CC[C@H](N)C(=O)O)C[C@H]2O[C@@H](n3cnc4c(N)ncnc43)[C@H](O)[C@@H]2O)cc1` [compound 27, (2S,5S)-2-amino-5-(((2R,3S,4R,5R)-5-(6-amino-9H-purin-9-yl)-3,4-dihydroxytetrahydrofuran-2-yl)methyl)-7-(4-carbamoylphenyl)hept-6-ynoic acid]: the “NNMT inhibition (in words)” value on NNMT [2] is “much less potent than NS1”.

As to `NC(=O)c1cccc(C#C[C@@H](CCCC(=O)O)C[C@H]2O[C@@H](n3cnc4c(N)ncnc43)[C@H](O)[C@@H]2O)c1` [compound 20, (S)-5-(((2R,3S,4R,5R)-5-(6-amino-9H-purin-9-yl)-3,4-dihydroxytetrahydrofuran-2-yl)methyl)-7-(3-carbamoylphenyl)hept-6-ynoic acid], at NNMT [2], the “NNMT inhibition (in words)” value is recorded as “poor NNMT inhibitor”.

On to `CO[C@@H]1O[C@H](C[C@@H](C#Cc2cccc(C(N)=O)c2)CC[C@H](N)C(=O)O)[C@@H](O)[C@H]1O` [compound 19, (2S,5S)-2-amino-7-(3-carbamoylphenyl)-5-(((2R,3S,4R,5R)-3,4-dihydroxy-5-methoxytetrahydrofuran-2-yl)methyl)hept-6-ynoic acid], for which the “NNMT inhibition (in words)” value on NNMT [2] is “completely abrogated NNMT inhibition”.

In the case of `C#C[C@@H](CC[C@H](N)C(=O)O)C[C@H]1O[C@@H](n2cnc3c(N)ncnc32)[C@H](O)[C@@H]1O` [compound 12, (2S,5S)-2-amino-5-(((2R,3S,4R,5R)-5-(6-amino-9H-purin-9-yl)-3,4-dihydroxytetrahydrofuran-2-yl)methyl)hept-6-ynoic acid], at NNMT [2], the “NNMT inhibition (in words)” value is recorded as “equally poor NNMT inhibitors”.

Consider `NCCC[C@H](C#Cc1cccc(C(N)=O)c1)C[C@H]1O[C@@H](n2cnc3c(N)ncnc32)[C@H](O)[C@@H]1O` [compound 21, 3-((S)-6-amino-3-(((2R,3S,4R,5R)-5-(6-amino-9H-purin-9-yl)-3,4-dihydroxytetrahydrofuran-2-yl)methyl)hex-1-yn-1-yl)benzamide], for which, in data set [1], the “ability to decrease MNAM levels” value is recorded as “the effects were modest”. For the same molecule, the “cytotoxicity to U2OS cells (in words)” value in the data set on U2OS cells is recorded as “None of the compounds tested (NS1, 21, 23, 24, 25) were toxic”.

Turning to `NC(=O)c1cccc(C#C[C@@H](CC[C@H](N)C(=O)O)C[C@H]2O[C@@H](n3cnc4c(N)ncnc43)[C@H](O)[C@@H]2O)c1` [NS1, (2S,5S)-2-amino-5-(((2R,3S,4R,5R)-5-(6-amino-9H-purin-9-yl)-3,4-dihydroxytetrahydrofuran-2-yl)methyl)-7-(3-carbamoylphenyl)hept-6-ynoic acid], the “A-B permeability (in words)” value with Caco-2 is on record as “limited permeability”. The “ability to decrease MNAM levels” value in data set [1] was “the effects were modest”. For the same molecule, the “isothermal dose response CETSA, stabilization of NNMT (in words)” value on NNMT [3] is “dose-dependent manner”. In the data set on U2OS cells, the “cytotoxicity to U2OS cells (in words)” value is given as “None of the compounds tested (NS1, 21, 23, 24, 25) were toxic”.

On to `NC(=O)c1cccc(C#C[C@@H](CCC[C@H](N)C(=O)O)C[C@H]2O[C@@H](n3cnc4c(N)ncnc43)[C@H](O)[C@@H]2O)c1` [compound 26, (2S,6S)-2-amino-6-(((2R,3S,4R,5R)-5-(6-amino-9H-purin-9-yl)-3,4-dihydroxytetrahydrofuran-2-yl)methyl)-8-(3-carbamoylphenyl)oct-7-ynoic acid], for which, on NNMT [2] (relative to NS1), the “fold increase in inhibitory activity in terms of Ki compared to NS1” value was ~ 2 fold.

As to `NC(=O)c1cccc(C#CCC[C@H]2O[C@@H](n3cnc4c(N)ncnc43)[C@H](O)[C@@H]2O)c1` [compound 17, 3-(4-((2R,3S,4R,5R)-5-(6-amino-9H-purin-9-yl)-3,4-dihydroxytetrahydrofuran-2-yl)but-1-yn-1-yl)benzamide], the “fold weaker inhibitor than NS1 in terms of Ki” value on NNMT [2] (relative to NS1) was ~ 500 fold.

Take `Nc1ncnc2c1ncn2[C@@H]1O[C@H](C[C@@H](C#Cc2cccc(S(N)(=O)=O)c2)CC[C@H](N)C(=O)O)[C@@H](O)[C@H]1O` [compound 29, (2S,5S)-2-amino-5-(((2R,3S,4R,5R)-5-(6-amino-9H-purin-9-yl)-3,4-dihydroxytetrahydrofuran-2-yl)methyl)-7-(3-sulfamoylphenyl)hept-6-ynoic acid]: on NNMT [2], the “NNMT inhibition (in words)” value is “much less potent than NS1”.

Consider `NC(=O)c1cccc(C#C[C@@H]2C[C@H]2[C@H]2O[C@@H](n3cnc4c(N)ncnc43)[C@H](O)[C@@H]2O)c1` [compound 18, 3-(((1R,2R)-2-((2R,3S,4R,5R)-5-(6-amino-9H-purin-9-yl)-3,4-dihydroxytetrahydrofuran-2-yl)cyclopropyl)ethynyl)benzamide], for which the “NNMT inhibition (in words)” value at NNMT [2] is given as “proved detrimental”.

For `NC(=O)c1cccc(CC[C@H](CC[C@H](N)C(=O)O)C[C@H]2O[C@@H](n3cnc4c(N)ncnc43)[C@H](O)[C@@H]2O)c1` [compound 16, (2S,5R)-2-amino-5-(((2R,3S,4R,5R)-5-(6-amino-9H-purin-9-yl)-3,4-dihydroxytetrahydrofuran-2-yl)methyl)-7-(3-carbamoylphenyl)heptanoic acid], the “fold difference in Ki between NS1-alkane and its C6’ epimer” value at NNMT [2] (relative to NS1-alkane (15)) is ~ 20 fold.

In the case of `NC(=O)c1ccccc1C#C[C@@H](CC[C@H](N)C(=O)O)C[C@H]1O[C@@H](n2cnc3c(N)ncnc32)[C@H](O)[C@@H]1O` [compound 28, (2S,5S)-2-amino-5-(((2R,3S,4R,5R)-5-(6-amino-9H-purin-9-yl)-3,4-dihydroxytetrahydrofuran-2-yl)methyl)-7-(2-carbamoylphenyl)hept-6-ynoic acid], the “NNMT inhibition (in words)” value at NNMT [2] is given as “much less potent than NS1”.

As to `NC(=O)NCC[C@H](C#Cc1cccc(C(N)=O)c1)C[C@H]1O[C@@H](n2cnc3c(N)ncnc32)[C@H](O)[C@@H]1O` [compound 25, 3-((S)-3-(((2R,3S,4R,5R)-5-(6-amino-9H-purin-9-yl)-3,4-dihydroxytetrahydrofuran-2-yl)methyl)-5-ureidopent-1-yn-1-yl)benzamide], the “ability to decrease MNAM levels” value in data set [1] is on record as “the effects were modest”. Also, the “isothermal dose response CETSA, stabilization of NNMT (in words)” value on NNMT [3] is on record as “dose-dependent manner”. Moreover, in the data set on U2OS cells, the “cytotoxicity to U2OS cells (in words)” value is recorded as “None of the compounds tested (NS1, 21, 23, 24, 25) were toxic”.

Regarding `NC(=O)c1cccc(C#C[C@@H](CC[C@H](N)C(N)=O)C[C@H]2O[C@@H](n3cnc4c(N)ncnc43)[C@H](O)[C@@H]2O)c1` [compound 24, 3-((3S,6S)-6,7-diamino-3-(((2R,3S,4R,5R)-5-(6-amino-9H-purin-9-yl)-3,4-dihydroxytetrahydrofuran-2-yl)methyl)-7-oxohept-1-yn-1-yl)benzamide], the “ability to decrease MNAM levels” value in data set [1] was “the effects were modest”. In the data set with U2OS cells, the “cytotoxicity to U2OS cells (in words)” value is recorded as “None of the compounds tested (NS1, 21, 23, 24, 25) were toxic”.

With `Nc1ncnc2c1ncn2[C@@H]1O[C@H](C[C@@H](C#Cc2ccc3c(c2)C(=O)NC3)CC[C@H](N)C(=O)O)[C@@H](O)[C@H]1O` [compound 35, (2S,5S)-2-amino-5-(((2R,3S,4R,5R)-5-(6-amino-9H-purin-9-yl)-3,4-dihydroxytetrahydrofuran-2-yl)methyl)-7-(3-oxoisoindolin-5-yl)hept-6-ynoic acid], on NNMT [2], the “NNMT inhibition (in words)” value is listed as “moderate NNMT inhibitors”.

With `NC(=O)c1cccc(CC[C@@H](CC[C@H](N)C(=O)O)C[C@H]2O[C@@H](n3cnc4c(N)ncnc43)[C@H](O)[C@@H]2O)c1` [compound 15, (2S,5S)-2-amino-5-(((2R,3S,4R,5R)-5-(6-amino-9H-purin-9-yl)-3,4-dihydroxytetrahydrofuran-2-yl)methyl)-7-(3-carbamoylphenyl)heptanoic acid], the “fold more potent than MS2756 in terms of Ki” value at NNMT [2] (relative to MS2756) is recorded as “approximately 200 fold”. Further, the “fold weaker inhibitor than NS1 in terms of Ki” value on NNMT [2] (relative to NS1) was roughly 10 fold.

In the case of `Nc1ncnc2c1ncn2[C@@H]1O[C@H](CCCC[C@H](N)C(=O)O)[C@@H](O)[C@H]1O` [compound 11, (S)-2-amino-6-((2R,3S,4R,5R)-5-(6-amino-9H-purin-9-yl)-3,4-dihydroxytetrahydrofuran-2-yl)hexanoic acid], the “NNMT inhibition (in words)” value on NNMT [2] is on record as “poor NNMT inhibitor”.

Take `Nc1ncnc2c1ncn2[C@@H]1O[C@H](C[C@@H](C#Cc2ccc3c(c2)C(=O)NCC3)CC[C@H](N)C(=O)O)[C@@H](O)[C@H]1O` [compound 34, (2S,5S)-2-amino-5-(((2R,3S,4R,5R)-5-(6-amino-9H-purin-9-yl)-3,4-dihydroxytetrahydrofuran-2-yl)methyl)-7-(1-oxo-1,2,3,4-tetrahydroisoquinolin-7-yl)hept-6-ynoic acid]: the “NNMT inhibition (in words)” value at NNMT [2] is reported as “moderate NNMT inhibitors”.
